Reference: patent publication US20210284615A1, “VORTIOXETINE ANALOGUE AND USE AND PREPARATION THEREOF” (priority 2016, published 2021)
Values joined by “and” are separate entries in the source; they are usually repeats but may differ in a detail not shown here. Identical values can stand only once. Like-named read-outs stand apart in the source and are kept apart here.

Tests used:
SLC6A4 = molecular target: T1, SLC6A4 (Homo sapiens, UniProt P31645); test: [3H]5-hydroxytryptamine (5-HT) reuptake inhibition in CHO cells transfected with pcDNA3.1-SLC6A4-His; assay type: cell-based; details: 25 nM [3H]5-hydroxytryptamine, 30 min
T1 construct: host or cells: CHO cells (Chinese hamster ovary, Cat #CCL-61), transient transfection with FuGENE HD
T1 sequence (P31645 whole entry): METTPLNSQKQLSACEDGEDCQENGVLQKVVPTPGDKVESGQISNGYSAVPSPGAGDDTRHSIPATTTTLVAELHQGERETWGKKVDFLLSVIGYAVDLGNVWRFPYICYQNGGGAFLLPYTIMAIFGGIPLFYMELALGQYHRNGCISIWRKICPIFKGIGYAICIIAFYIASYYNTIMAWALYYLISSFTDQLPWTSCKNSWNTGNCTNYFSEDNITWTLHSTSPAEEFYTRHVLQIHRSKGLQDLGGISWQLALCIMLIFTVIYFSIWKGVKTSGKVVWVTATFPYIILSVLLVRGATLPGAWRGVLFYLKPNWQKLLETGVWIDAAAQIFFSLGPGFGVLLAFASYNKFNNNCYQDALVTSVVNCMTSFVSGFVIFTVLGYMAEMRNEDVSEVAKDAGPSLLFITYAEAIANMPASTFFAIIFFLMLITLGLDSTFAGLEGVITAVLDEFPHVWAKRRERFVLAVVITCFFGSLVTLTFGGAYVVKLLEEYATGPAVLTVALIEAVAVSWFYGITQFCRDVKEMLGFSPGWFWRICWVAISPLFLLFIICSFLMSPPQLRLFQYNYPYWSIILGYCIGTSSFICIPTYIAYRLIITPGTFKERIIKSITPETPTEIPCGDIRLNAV
Protocol: SLC6A4 gene from plasmid Pcmv6-XL4-SLC6A4 (Origene, Cat #SC119478) was amplified by PCR (polymerase chain reaction), and a HIS tag was added to the C terminal, and then inserted into pcDNA3.1 (−) vector at 5′EcoR1 and 31-lind111 restriction enzyme cutting sites to build pcDNA3.1-SLC6A4-His.
CHO cells in logarithmic growth period (Chinese hamster ovary cells, Institute of Cell Biology, Chinese Academy of Sciences, Cat #CCL-61) were collected and counted. The cells were resuspended in F-12 culture media (Gibco, Cat #11330-032) and inoculated on a 96-well plate with 100 μL (20000 cells/well) per well. It was incubated in 5% CO2 incubator (relative humidity 100%) at 37° C. for 24 h.
The above modified plasmids (0.48 μg) were diluted with Opti-MEM culture medium (25 μL, Gibco, Cat #11058021), and blew gently to mix homogenously. […]
Compound 1 and vortioxetine were respectively diluted to 1 mM with Opti-MEM culture medium, then diluted 10 times per 4 times gradient, and then added to the transfected cell wells by 20 μL/well (the corresponding concentrations were 100 μM-0.0004 μM, in total of 10 concentration points, the concentration ratio between each concentration point was 4, each concentration included 3 parallel wells). […] 50 μL of lysed cell fluid was taken, and 200 μL of scintillation solution was added thereto, and reading was conducted with MicroBeta2. […]

[1] = Determination of lipid-water partition coefficient; assay type: physicochemical
Protocol: Vortioxetine hydrobromide (6 mg) and Compound 3 (6 mg) were dissolved respectively in a mixed solution composed of a pH 7.4 of phosphate buffer (3 ml) and n-octyl alcohol (3 ml), and the mixture was allowed to stand for 3 hours at 37° C. The concentration of each compound in water phase and oil phase was respectively determined, and calculated by logP=[…]log (Coil/Cwater). The results are as follows: logPvortioxetine=2.1; logPcompound 3=2.7.

[2] = test system: 5-HTP induced head-twitch model; test: Head-twitch test in mice (5-HTP induced); assay type: in vivo, KM mice; details: 20 mg/kg intraperitoneal injection, then 200 mg/kg 5-HTP, within 0-10 min
Protocol: KM mice (male, 18-22 g, Experimental Animal Center, Chongqing Medical University) were randomly divided into 6 mice per group. According to the below table, the animals in each experiment group were administrated a solution of corresponding agent, and then 200 mg/kg 5-HTP (5-hydroxytryptophan). The effects of vortioxetine and Compound 3 on the frequency of head-twitch of mice within 0-10 min were determinate (see [i]Brit. J. Pharmacol. (1963), 20, 106-120 for detailed experiment methods).

[3] = Test of blood drug level in rats; assay type: in vivo, SD rats; details: for Blood drug level: intragastric, Vortioxetine 20 mg/kg (rats A1-A4), Compound 3 22.8 mg/kg (rats B1-B4), individual rats, in ng/mL (unit assumed)
Protocol: SD rats (male, 180-220 g, Experimental Animal Center, Chongqing Medical University) were randomly divided into groups with 4 rats per group. Food was prohibited, but not water, for 8 hours before administration.
Blood samples were collected from the orbital venous plexus at 0, 1, 2, 4, 6, 8 h after administration, wherein at least 0.3 ml was taken at each time point, and heparin was used for anticoagulant. The obtained whole blood (200 μl) was added to acetonitrile (800 LA, vortexed and shaken for 1 min, and then centrifuged for 10 min at 12000 rpm. The supernatant was taken and kept at −20° C., and the blood drug level of the supernatant was determined by LC/MS/MS. The data for each animal in groups are as follows: […]

KM mice = test: Forced swimming test in mice; assay type: in vivo; details: 20 mg/kg oral gastric lavage, 1 hour after administration, last 4 min of 6 min swim
Protocol: KM mice (male, 38-42 g, Experimental Animal Center, Chongqing Medical University) were randomly divided into groups with 6 mice per group. After fasted for 4 h, the mice were placed in a glass cylinder with a diameter of 18 cm, height of 40 cm, water depth of 15 cm (water temperature 25° C.) to swim for 6 min, then dried with a warm air blower. The animals in each experiment group were administrated a solution of corresponding agent (Oral administration of gastric lavage, 20 mg/kg) according to the table below. After 1 hour of administration, the mice were placed in a glass cylinder with a diameter of 18 cm, height of 40 cm, water depth of 15 cm (water temperature 25° C.) to swim for 6 min. The swimming of the mice was recorded within 6 min by a camera system, and the data were automatically collected and analyzed by Noldus software. The quiescent time during swimming was recorded and counted within the last 4 min (for the experiment method, see THE JOURNAL OF PHARMACOLOGY AND EXPERIMENTAL THERAPEUTICS (2012), Vol. 340, No. 3: 666-675).

[4] = human, cited from earlier work
[5] = Test of brain concentration and plasma concentration; assay type: in vivo, KM mice; details: male, KM, mouse, Compound 1 23.6 mg/kg
Protocol: KM mice (male, 18-22 g, Experimental Animal Center, Chongqing Medical University) were randomly divided into groups with 6 mice per group. In accordance with the table below, the animals in each group were respectively injected intravenously with equal moles of vortioxetine (20 mg/kg) and Compound 1 (23.6 mg/kg). Samples of blood and brain tissue of the mouse were taken at 1 and 2 hours after injection. The concentrations of vortioxetine and Compound 1 in blood plasma and brain tissue were respectively measured, and the ratios (concentration in brain tissue/concentration in blood plasma) were calculated.

[6] = oral administration; cited from earlier work
[7] = 2 h after oral 20 mg/kg, male Listar Hooded rats; cited from earlier work

**Q.** Which results are given for `Cc1cc(C(F)(F)F)ccc1Sc1ccccc1N1CCNCC1` [Compound 1, 1-[2-(2-methyl-4-trifluoromethylphenylthio)phenyl]piperazine]?
**A.** IC50 (SLC6A4): 231 nM; melting point: 206 to 208 °C

**Q.** For `Br.Cc1cc(C(F)(F)F)ccc1Sc1ccccc1N1CCNCC1` [Compound 3, 1-[2-(2-methyl-4-trifluoromethylphenylthio)phenyl] piperazine hydrobromide], which logP at 3 h ([1]; pH 7.4) is on record?
**A.** 2.7

**Q.** And the Number of head-twitch [2]?
**A.** 45.0 ± 29.0

**Q.** What about the Blood drug level ([3]; 0 h, hydrobromide) of the same compound?
**A.** 0.815 and 2.195 and 1.62 and 0.975

**Q.** What about the Blood drug level ([3]; 1 h, hydrobromide) of the same compound?
**A.** 458.925 and 276.675 and 351.38 and 412.775

**Q.** What about the Blood drug level ([3]; 2 h, hydrobromide) of the same compound?
**A.** 587.71 and 237.72 and 441.03 and 648.63

**Q.** And the Blood drug level ([3]; 4 h, hydrobromide)?
**A.** 726.37 and 181.565 and 334.54 and 297.135

**Q.** What about the Blood drug level ([3]; 6 h, hydrobromide) of the same compound?
**A.** 421.06 and 139.79 and 230.075 and 159.715

**Q.** What about the Blood drug level ([3]; 8 h, hydrobromide) of the same compound?
**A.** 386.805 and 37.895 and 109.47 and 78.5

**Q.** What about the “blood drug levels compared with equal moles of vortioxetine” value ([3]; oral, all time points) of the same compound?
**A.** higher

**Q.** And the Quiescent time (KM mice)?
**A.** 107 ± 31 s

**Q.** What about the melting point of the same compound?
**A.** 170 to 172 °C

**Q.** Which “share of LUAA34443 and LUAA34443 glucuronide together” value ([4]; oral 14C-vortioxetine free base 50 mg, one combined value for both metabolites) does the source give for `Cc1cc(C(=O)O)ccc1Sc1ccccc1N1CCNCC1` [LUAA34443] here?
**A.** 44%

**Q.** For `Cc1ccc(Sc2ccccc2N2CCNCC2)c(C)c1` [Vortioxetine], which logP at 3 h ([1]; n-octyl alcohol / pH 7.4 phosphate buffer, pH 7.4 phosphate buffer / n-octyl alcohol, 3 hours at 37° C., read-out: logP (lipid-water partition coefficient)) is on record?
**A.** 2.1

**Q.** What about the IC50 (SLC6A4) of the same compound?
**A.** 267 nM

**Q.** What about the Number of head-twitch [2] of the same compound?
**A.** 56 ± 10

**Q.** And the Kp at 1 h ([5]; brain/plasma, 1 hour after intravenous injection, vortioxetine 20 mg/kg, read-out: Concentration ratio in brain tissue and plasma)?
**A.** 60.2 ± 8.64

**Q.** And the Kp at 2 h ([5]; brain/plasma, 2 hours after intravenous injection, vortioxetine 20 mg/kg, read-out: Concentration ratio in brain tissue and plasma)?
**A.** 44.6 ± 13.1

**Q.** And the concentration at 1 h ([5]; brain, 1 hour after intravenous injection, equal moles: vortioxetine 20 mg/kg, read-out: Concentration in brain tissue)?
**A.** 15400 ± 1400 ng/g

**Q.** What about the concentration at 2 h ([5]; brain, 2 hours after intravenous injection, vortioxetine 20 mg/kg, read-out: Concentration in brain tissue) of the same compound?
**A.** 7490 ± 560 ng/g

**Q.** And the concentration at 1 h ([5]; plasma, 1 hour after intravenous injection, vortioxetine 20 mg/kg, read-out: Blood drug level)?
**A.** 261 ± 53.5 ng/mL

**Q.** And the concentration at 2 h ([5]; plasma, 2 hours after intravenous injection, vortioxetine 20 mg/kg, read-out: Blood drug level)?
**A.** 167 ± 49.5 ng/mL

**Q.** What about the Blood drug level ([3]; 0 h) of the same compound?
**A.** 0

**Q.** What about the Blood drug level ([3]; 1 h) of the same compound?
**A.** 48.59 and 163.07 and 183.96 and 256.56

**Q.** And the Blood drug level ([3]; 2 h)?
**A.** 85.335 and 149.685 and 164.88 and 195.125

**Q.** And the Blood drug level ([3]; 4 h)?
**A.** 34.54 and 90.305 and 94.53 and 164.845

**Q.** What about the Blood drug level ([3]; 6 h) of the same compound?
**A.** 17.095 and 47.74 and 40.91 and 72.6

**Q.** And the Blood drug level ([3]; 8 h)?
**A.** 7.13 and 6.76 and 23.35 and 26.315

**Q.** What about the Quiescent time (KM mice) of the same compound?
**A.** 136 ± 37 s

**Q.** And the bioavailability [6]?
**A.** about 75%

**Q.** What about the “distribution concentration in brain” value [7] of the same compound?
**A.** 2.77 µg/g

**Q.** And the “distribution concentration in kidney” value [7]?
**A.** 10.3 µg/g

**Q.** And the “distribution concentration in liver” value [7]?
**A.** 22.3 µg/g

**Q.** And the “distribution concentration in lung” value [7]?
**A.** 15.5 µg/g

**Q.** What about the “parent drug share in plasma” value ([4]; 4 hours after oral 14C-vortioxetine free base 50 mg) of the same compound?
**A.** about 8%
